Measurements: patent US20120238491A1, “IMMUNOLOGICALLY ACTIVE LIPOPEPTIDES AND METHODS FOR USE THEREOF” (THERIMUNEX PHARMACEUTICALS, INC., priority 2009, published 2012)

Key:
[1] = tested on: MIP-1 mRNA; test: MIP-1 mRNA expression in human fibroblasts; type: cell-based; conditions: for MIP-1 mRNA expression increase: natural pDAG 1:100 dilution, relative to -actin; for MIP-1α expression in fibroblasts (in words): peptide transfected
Description: (§1) mRNA Expression Experiments. Normal primary human fibroblasts obtained from the Coriell Institute (Camden, N.J.) were cultured in 70 mm dishes in DMEM supplemented with 10% FBS and 1× penicillin/streptomycin at 37° C. and 5% CO2. Human fibroblasts were incubated in the presence of the serum fractions, compound pDAG, the peptide moiety of pDAG, or diacylglycerol. In the initial experiments we examined the differences between fibroblasts treated with the various serum fractions, synthetic pDAG (the peptide moiety from pDAG or diacylglycerol), fibroblasts treated with LPS as a positive control, and fibroblasts without treatment. The culture medium was stored at −80° C. for ELISA of the excreted cytokine proteins (see below). Total RNA from fibroblasts was extracted using the RNeasy Mini kit (Qiagen, Valencia, Calif.) according to the manufacturer's protocol. To verify the expression of transcripts; 2.0 μg of total RNA was reverse-transcribed using Super-script-III reverse transcriptase (Invitrogen, Carlsbad Calif.), according to the manufacturer's protocol. Transcripts were quantified using SYBR Green PCR amplification (Perkin Elmer, Waltham Mass.). Primers employed in these studies are outlined in Table 6, below. All transcripts were normalized to β-actin. Briefly, 0.4 μg/μL of cDNA was tested with 10 μM of each specific primer and 1× SYBR Green in a total volume of 20 uL.
(§2) Bioassays. The fractions generated from dialysis (methanol/chloroform soluble, methanol/chloroform insoluble, dialysis retentate, and the fractions collected from reversed phase HPLC) were taken to dryness by lyophilization. The freeze-dried solids were weighed and dissolved in the appropriate volume of deionized water to give a final concentration of 1 mg/mL and assayed for mRNA expression (IL-6, IL-8, MIP1α, and MIP1β) in human fibroblasts.

[2] = Lability to hydrolysis; type: physicochemical; conditions: acidic and basic conditions
Description: The C8 RP-HPLC peaks eluting between 4.83 and 9.36 min. in a non-purified fraction containing compound pDAG are hydrolysis products of compound pDAG. Therefore, the classical degradation approach to natural product structure elucidation was used. The purified compound pDAG (as a tryptophan complex) was subjected to mild acid hydrolysis, in situ N-terminal sulfonation, and analysis of the hydrolysis products to identify peptide fragments that would account for the entire structure of pDAG.
Hydrolysis and Derivatization of the Natural Product (pDAG). […] Therefore, […] of native pDAG was subjected to mild acid hydrolysis conditions (1 N HCl in phosphate buffered saline) for 18 hours at 25° C. The post-reaction buffer salts were removed using a C18 spin column (ThermoFisher Scientific) and the hydrolysis products were eluted from the column using 50% CH3CN/0.1% TFA. The final product was brought to dryness by evaporation in vacuo at 4° C. The hydrolysis products were derivatized using the N-terminal sulfonation reagent, 4-sulfophenylisothiocyanate, and analyzed in situ by MALDITOF in an -cyano-4-hydroxycinnamic acid matrix using the method described by Wang. See Wang, D.; Kalb, S. R.; Cotter, R. J. Rapid Commun. Mass Spectrom. 2004, 18, 96-102.

[3] = tested on: IL-6 mRNA; test: IL-6 mRNA expression in human fibroblasts; type: cell-based; conditions: for IL-6 mRNA elevation relative to a -actin control: 24 hours, p<0.05; for IL-6 mRNA expression increase relative to untreated control: 24 h, normalized to -actin (FIG. 1)
Description: as §1
(§3) Lipofection Studies. Cells were cultured so that at the time of transfection they were 50-80% confluent. […] PLUS reagent (0.5 μL) and lipofectamine (1 μL) were then added to the peptide Opti-MEM solution, vortexed and incubated at room temperature for 30 min. Five hundred microliters of complete DMEM was added to the fibroblasts and 0.6 μL of the peptide/lipofectamine was added and allowed to incubate overnight. RNA was extracted and processed as described above.
as §2

[4] = tested on: MCP-1 mRNA; test: MCP-1 mRNA expression in human fibroblasts; type: cell-based; conditions: for MCP-1 mRNA increase: relative to -actin; for MCP-1 expression in fibroblasts (in words): peptide transfected
Description: as §1, §2

[5] = tested on: IL-1 mRNA; test: IL-1 mRNA expression in human fibroblasts; type: cell-based
Description: as §1, with “Therefore we speculated that the diacylglycerol moiety enabled the peptide to cross the cell membrane. To test this hypothesis and to ascertain the biological role of the diacylglycerol moiety in compound pDAG, if any, the peptide moiety transfected into human fibroblasts or diacylglycerol alone were evaluated by measuring the expression of mRNA” for “mRNA”, “(IL-1, IL-6, IL-8, IL-18, and IL-33). […] Diacylglycerol could stimulate mRNA expression of IL-33 and IL-18, but not IL-1 in fibroblasts. […]” for “Expression Experiments.”, “uL. Lipofection Studies. Cells were cultured so that at the time of transfection they were 50-80% confluent. Five microliters of the stock peptide moiety from pDAG was diluted in Opti-MEM Reduced Serum Medium to give a final concentration of 5 μg/mL. […]” for “uL.”

[6] = tested on: human fibroblasts; test: Inflammatory cytokine and chemokine production by human fibroblasts (overall stimulation); type: cell-based
Description: as §1
as §3, with “overnight.” for “overnight. RNA was extracted and processed as described above.”

[7] = tested on: IL-8 mRNA; test: IL-8 mRNA expression in human fibroblasts; type: cell-based
Description: as §1, §3
Bioassays. The fractions generated from dialysis (methanol/chloroform soluble, methanol/chloroform insoluble, dialysis retentate, and the fractions collected from reversed phase HPLC) were taken to dryness by lyophilization. […]

[8] = tested on: IL-33 mRNA; test: IL-33 mRNA expression in human fibroblasts; type: cell-based
Description: Therefore we speculated that the diacylglycerol moiety enabled the peptide to cross the cell membrane. To test this hypothesis and to ascertain the biological role of the diacylglycerol moiety in compound pDAG, if any, the peptide moiety transfected into human fibroblasts or diacylglycerol alone were evaluated by measuring the expression of mRNA (IL-1, IL-6, IL-8, IL-18, and IL-33). […] Diacylglycerol could stimulate mRNA expression of IL-33 and IL-18, but not IL-1 in fibroblasts. […] Normal primary human fibroblasts obtained from the Coriell Institute (Camden, N.J.) were cultured in 70 mm dishes in DMEM supplemented with 10% FBS and 1× penicillin/streptomycin at 37° C. and 5% CO2. Human fibroblasts were incubated in the presence of the serum fractions, compound pDAG, the peptide moiety of pDAG, or diacylglycerol. In the initial experiments we examined the differences between fibroblasts treated with the various serum fractions, synthetic pDAG (the peptide moiety from pDAG or diacylglycerol), fibroblasts treated with LPS as a positive control, and fibroblasts without treatment. The culture medium was stored at −80° C. for ELISA of the excreted cytokine proteins (see below). […] Transcripts were quantified using SYBR Green PCR amplification (Perkin Elmer, Waltham Mass.). […]

[9] = tested on: established bacterial and viral infections; test: Administration to dogs, survival rate; type: in vivo; conditions: various amounts
[10] = tested on: C. pneumonia; test: C. pneumonia load in THP-1 cells; type: cell-based; conditions: 25 ng/ml and 50 ng/ml
Excerpt: The pDAG produced in accordance with the invention is believed to induce fibroblast IL-6 expression similar to that of the natural product, and to induce fibroblast IL-8 mRNA and protein expression, to increase MCP-1 expression and to induce MIP-1alpha.

[11] = tested on: IL-18 mRNA; test: IL-18 mRNA expression in human fibroblasts; type: cell-based
Description: as §1, with “Therefore we speculated that the diacylglycerol moiety enabled the peptide to cross the cell membrane. To test this hypothesis and to ascertain the biological role of the diacylglycerol moiety in compound pDAG, if any, the peptide moiety transfected into human fibroblasts or diacylglycerol alone were evaluated by measuring the expression of mRNA” for “mRNA”, “(IL-1, IL-6, IL-8, IL-18, and IL-33). […] Diacylglycerol could stimulate mRNA expression of IL-33 and IL-18, but not IL-1 in fibroblasts. […]” for “Expression Experiments.”, “uL. Lipofection Studies. Cells were cultured so that at the time of transfection they were 50-80% confluent. Five microliters of the stock peptide moiety from pDAG was diluted in Opti-MEM Reduced Serum Medium to give a final concentration of 5 μg/mL. PLUS reagent (0.5 μL) and lipofectamine (1 μL) were then added to the peptide Opti-MEM solution, vortexed and incubated at room temperature for 30 min. Five hundred microliters of complete DMEM was added to the fibroblasts and 0.6 μL of the peptide/lipofectamine was added and allowed to incubate overnight. RNA was extracted and processed as described above.” for “uL.”

[12] = tested on: established bacterial and viral infections; test: Administration to cows, number of white blood cells; type: in vivo; conditions: various amounts
[13] = tested on: IL-8 protein; test: ELISA for secreted IL-8 protein from human fibroblasts; type: cell-based; conditions: 0.3 to 3 ng/mL
Description: Fibroblasts were treated with various concentrations of synthetic pDAG for 24 hours; the media were reserved for ELISA assays of IL-6 and IL-8, and mRNA was extracted from the cells to measure all four cytokines IL-6 mRNA was elevated 20% in response to synthetic pDAG and 40% with natural pDAG relative to a -actin control (p<0.05). […] Compound pDAG induced IL-8 expression by about 5-fold compared to untreated fibroblasts, in dose-response studies (FIG. 2). […] The MCP-1 and MIP-1 mRNA expression in human fibroblasts incubated with approximately equivalent amounts of natural pDAG (1:100 dilution) and synthetic pDAG (3 ng/mL). Both synthetic pDAG and the natural product induced a 3-fold increase in MCP-1 mRNA relative to the -actin control and increased MIP-1α mRNA expression relative to -actin by 15% (FIG. 3).
ELISA for IL-8 Protein. Human IL-8 was measured by ELISA according to the manufacturer's specifications (eBioscience San Diego, Calif.) in the supernatants of fibroblasts cultured in complete DMEM with varying amounts of pDAG. Briefly, high affinity binding plates were coated with anti-human IL-8 overnight at 4° C. Wells were washed with Wash Buffer five times at 1 min. each wash and blocked with Assay Diluent for 60 min. at room temp. […] The reaction was halted with Stop Solution and the plate read at 450 nm with wavelength subtraction at 570 nm.

[14] = tested on: HBV; test: HBV viral load in hepatocytes; type: cell-based; conditions: 25 to 400 ng/ml
[15] = tested on: IgM production; test: Administration to rabbits, adjuvant effect on IgM production; type: in vivo; conditions: administered with other drugs
[16] = increasing concentrations of synthetic pDAG
[17] = transfected peptide 10 ng/mL (~3 nM)

1-peptidyl-2-arachidonoyl-3-stearoyl glyceride [natural pDAG]
MIP-1 mRNA expression increase [1]: ~60%
MIP-1 mRNA expression increase ([1]; listed as natural product): 15%
lability to hydrolysis ([2]; listed as Native pDAG): labile to acid hydrolysis
lability to hydrolysis ([2]; listed as serum-derived compound pDAG): especially labile to hydrolysis
IL-6 mRNA elevation relative to a -actin control [3]: 40%
IL-6 mRNA expression increase relative to untreated control ([3]; natural pDAG 1:100 dilution): ~30%
MCP-1 mRNA increase ([4]; natural pDAG 1:100 dilution): 3 fold

1-peptidyl-2-arachidonoyl-3-stearoyl glyceride [pDAG]
induction of IL-1alpha [5]: found to induce
induction of IL-1beta [5]: found to induce
EC99 (apparent / possible maximum effective concentration) ([6]; pDAG, human fibroblasts, cytokine and chemokine production): 3 ng/mL
EC99 ([6]; pDAG, signaling in human fibroblasts): ~1 nM
IL-8 expression induction compared to untreated fibroblasts ([7]; dose-response studies (FIG. 2), 24 hours): about 5 fold
IL-8 mRNA expression dose response [7, 16]: negative dose response
MIP-1α expression in fibroblasts (in words) [1]: increased expression
induction of IL-33 [8]: found to induce
survival rate compared with untreated dogs [9]: over doubling the survival rate
IL-6 mRNA elevation relative to a -actin control ([3]; listed as synthetic pDAG): 20%
IL-6 mRNA expression increase relative to untreated control ([3]; synthetic pDAG 5 ng/mL): ~30%
C. pneumonia load [10]: reduction of C. pneumonia load
induction of IL-18 [11]: found to induce
reduction of the number of white blood cells [12]: nearly threefold
MCP-1 expression in fibroblasts (in words) [4]: increased expression
MCP-1 mRNA increase ([4]; synthetic pDAG 3 ng/mL): 3 fold
concentration giving maximal effect (EC99) on secreted IL-8 ([13]; ELISA, 24 hours): 3 ng/mL
secreted IL-8 protein dose response [13, 16]: positive linear dose response
HBV viral load [14]: reduction of HBV viral load
adjuvant effect in terms of IgM production [15]: significant adjuvant effect

CCCCC/C=C\C/C=C\C/C=C\C/C=C\CCCC(=O)O[C@@H](CO)COC(=O)CCCCCCCCCCCCCCCCC [diacylglycerol, 1-stearoyl-2-arachidonoyl-sn-glycerol, reference compound]
increase in IL-18 mRNA expression ([11]; diacylglycerol alone, ~30 nM): 20%

acALYDKGYTSKEQKDCVGI [peptide moiety of pDAG]
IL-1 mRNA vs untreated or lipofectamine-only fibroblasts [5, 17]: substantially increased
fold higher concentration than pDAG needed for comparable responses ([6]; peptide moiety, not transfected): 1,000 fold
IL-8 mRNA vs untreated or lipofectamine-only fibroblasts [7, 17]: substantially increased
MIP-1α expression in fibroblasts (in words) [1]: increased expression
IL-33 mRNA vs untreated or lipofectamine-only fibroblasts [8, 17]: substantially increased
IL-6 mRNA vs untreated or lipofectamine-only fibroblasts [3, 17]: substantially increased
IL-18 mRNA vs untreated or lipofectamine-only fibroblasts [11, 17]: substantially increased
increase in IL-18 mRNA expression ([11]; transfected peptide, ~10 nM): > 3 fold
MCP-1 expression in fibroblasts (in words) [4]: increased expression
